Melting point data for two compounds are collected here from patent US6417186B1, “Substituted-phenyl ketone derivatives as IP antagonists” (Syntex (U.S.A.) LLC, priority 2000, dated 2002).

Each structure is given as a SMILES string.

Broadly, the melting point is the temperature, or range, at which the solid turns liquid. In the case of `O=C(CCc1ccc(NC2=NCCN2)cc1)c1ccc(N2CCOCC2)cc1` [Example 3, 3-[4-(4,5-Dihydro-1H-imidazol-2-ylamino)phenyl]-1-(4-morpholin-4-ylphenyl)-propan-1-one], the melting point was 196 to 197.6 °C.
As for `CCOC(=O)N1CCN(c2ccc(C(=O)CCc3ccc(NC4=NCCN4)cc3)cc2)CC1` [Example 5, 3-[4-(4,5-Dihydro-1H-imidazol-2-ylamino)phenyl]-1-[4-(4-ethoxycarbonyl-piperazin-1-yl)phenyl]propan-1-one], the figure is 150 to 151.2 °C.
